Results on 1 compound are retold here after patent publication EP0173754A1, “7-THIAPROSTAGLANDIN E 1?'S AND PROCESS FOR THEIR PREPARATION” (TEIJIN LIMITED, priority 1984, dated 1985).

The structures appear in SMILES notation. In brackets after ≈: the same amount, converted by molar mass.

The test system of assay [1] is Ethanol Ulcer. The assay is described as follows: Effect against ethanol ulcer in rats. Type of assay: in vivo. The settings on record: Rattus norvegicus, po, 1 h; P.O; SD type male rats; 75% ethanol 1 ml/kg orally 30 minutes after sample; ulcer length one hour after ethanol; read-out: Antiulcerative effect ED50. The protocol: SD type male rats (7 weeks old and body weight of 220 g) were abstained from food for 24 hours except giving water and then subjected to experiments.
The sample compound to be tested was dissolved in a phosphoric acid buffer (pH 7.4) containing 0.9% NaCl and the solution was orally administered to the rats. 30 minutes after the administration, 75% ethanol was orally administered to the rats at a dose of 1 ml/kg. One hour after the administration of the ethanol, the rats were killed and the ulcer formation in the stomach was examined by determining the length of the ulcer formation portion under a stereomicroscope. From this measurement, the inhibition of ulcer formation by the sample compound was calculated to determine the ED50 value.

Assay [2] deals with ulcer formation induced by indomethacin. The assay is described as follows: Antiulcerative effect: inhibition of indomethacin-induced ulcer formation in rats. The settings on record: Rattus norvegicus, po; P.O; Wister male rats; indomethacin 20 mg/kg orally 30 minutes after sample; ulcer length 5 hours after indomethacin. The assay is classed as in vivo. The procedure:
The inhibiting effect on ulcer formation induced by indomethacin was examined by using rats. Wister male rats (7 weeks old and body weight of 220 g) were abstained from food for 24 hours except giving water and then subjected to experiments.
The sample compounds to be tested were dissolved in a phosphoric acid buffer (pH 7.4) containing 0.9% NaCl and the solution was orally administered to the rats. 30 minutes after the administration, indomethacin was orally administered to the rats at a dose of 20 mg/kg. 5 hours after the administration of the indomethacin, the rats were kileld and the ulcer formation in the stomach was examined by determining the length of the ulcer formation portion under a stereomicroscope. From this measurement, the inhibition of ulcer formation by the sample compounds were calculated to determine the ED50 values.

The subject of assay [3] is blood platelet aggregation. Description: In vitro blood platelet aggregation inhibition (ADP-induced, rabbit PRP). Type of assay: cell-based, rabbits. The settings on record: Oryctolagus cuniculus, 10 uM ADP (final), preincubated 37°C 2 minutes, read-out: Anti-platelet aggregation effect IC50. The source says:
The in vitro blood platelet aggregation inhibition effect of the sample compounds to be tested was examined by using rabbits. That is, blood was collected from the ear vein of native Japanese white male domestic rabbits weighing 2.5 to 3.5 kg. The collected blood was 9 parts by volume per 1 part by volume of a 3.8% sodium citrate solution. The blood was centrifuged at 1000 r.p.m. for 10 mintues. The upper layer portion was separated as PRP (rich in platelet blood plasma). The lower layer portion was further centrifuged at 2800 r.p.m. for 10 mintues to divide it into two layers. The upper layer portion was separated as PPP (poor in platelet blood plasma). The number of the platelet was diluted with PPP to 6 to […]. […]
When the activity of the sample compounds was determined, the ethanol solution was diluted with a phosphoric acid buffer (PH 7.4). The ethanol solution diluted with the buffer was left to stand at a temperature of 0°C for 4 hours, after which the activity of the sample compounds was determined in the same manner.
The platelet aggregation inhibition was calculated by the following formula: [formula] • T : the transmittance of the system to which the phosphoric acid buffer is added • T: the transmittance of the system to which the sample compounds are added […]

For `CCCCC(O)C/C=C/[C@H]1[C@H](O)CC(=O)[C@@H]1SCCCCCC(=O)OC` (stereo partly drawn) [Compound of this invention], the figures for the ED50 in assay [1] and in assay [2] were 0.018 mg/kg and 0.01 mg/kg, respectively. Further, the IC50 in assay [3] was 17 µg/mL (≈ 44 µM).

As a reminder, the ED50 is the dose that gives a 50% effect, or the effect in half of the subjects. In general, IC50 refers to the concentration needed to halve the response being measured.
